Source: patent US11285208B2, “Therapeutic agents for pancreatic cancer” (NATIONAL CANCER CENTER, priority 2010, dated 2022)
Where a name gives a salt, the structure may show the parent alone.

Tests used:
[1] = tested on: progressive/metastatic pancreatic cancer; assay: Clinical performance of gemcitabine hydrochloride monotherapy in progressive/metastatic pancreatic cancer patients; assay type: in vivo, human
Source text: Thus, the tumor reducing effect and ascites eliminating effect observed in one case of combination therapy were not observed with monotherapy.

pancreatic cancer = details: first-line therapy, foreign phase III clinical trials; cited from earlier work

## Nc1ccn([C@@H]2O[C@H](CO)[C@@H](O)C2(F)F)c(=O)n1 [gemcitabine hydrochloride]
[1]; 3 months after the start of monotherapy, 25 analyzable cases, 95% confidence interval 4.6-67.4%
  Average change in tumor size (increase): 36.0%
[1]; during the monotherapy of 3 months, 29 analyzable cases
  Ascites elimination: ascites was not eliminated
Pancreatic cancer
  Efficacy in symptom palliation: 23.8%
  Median survival time: 5.7 months
  One-year survival rate: 18%
